IC50 data for 13 molecules are collected here from US10294207B2, “Pyrazole derivatives as TNIK, IKKϵ and TBK1 inhibitor and pharmaceutical composition comprising same” (GREEN CROSS CORPORATION, priority 2015, dated 2019).

As a reminder, the IC50 is the concentration needed to halve the response being measured.

Experiment [1] deals with T1, TBK1 (Homo sapiens, UniProt Q9UHD2).
T1 construct: purchased Promega V3991
T1 sequence (Q9UHD2 1-729): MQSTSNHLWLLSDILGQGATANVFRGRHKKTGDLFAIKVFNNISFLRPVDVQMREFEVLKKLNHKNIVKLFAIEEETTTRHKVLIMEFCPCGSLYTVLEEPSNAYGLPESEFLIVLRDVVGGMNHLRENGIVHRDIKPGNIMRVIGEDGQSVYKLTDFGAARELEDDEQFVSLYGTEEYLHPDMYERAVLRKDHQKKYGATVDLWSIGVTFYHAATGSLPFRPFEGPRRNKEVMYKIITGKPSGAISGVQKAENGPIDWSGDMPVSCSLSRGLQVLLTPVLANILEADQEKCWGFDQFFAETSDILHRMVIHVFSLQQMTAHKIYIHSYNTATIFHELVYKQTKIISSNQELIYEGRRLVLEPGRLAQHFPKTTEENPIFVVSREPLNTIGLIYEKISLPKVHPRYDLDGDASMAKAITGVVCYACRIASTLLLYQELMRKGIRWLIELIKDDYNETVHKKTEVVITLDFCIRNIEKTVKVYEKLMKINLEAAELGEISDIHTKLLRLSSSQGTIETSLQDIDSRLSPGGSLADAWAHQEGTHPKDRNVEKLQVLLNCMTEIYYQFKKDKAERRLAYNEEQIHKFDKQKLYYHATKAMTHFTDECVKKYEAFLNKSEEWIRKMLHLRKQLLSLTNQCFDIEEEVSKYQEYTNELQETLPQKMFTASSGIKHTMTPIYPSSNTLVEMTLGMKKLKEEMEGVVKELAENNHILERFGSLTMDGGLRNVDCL
In words: TBK1 inhibition, ADP-Glo Kinase Assay. The experiment is classed as biochemical. The following applies: luminometer. The procedure, abridged: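 Each recombinant kinase enzyme system was run per the manufacturer's protocol in 40 mM Tris pH 7.5, 20 mM MgCl2 and 0.1 mg/mL BSA. Kinase activity was detected as ADP formation by ADP-Glo luminescence.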
Background: ADP-Glo first removes unused ATP, then detects ADP through luciferase.

Experiment [2] deals with T2, IKKε (Homo sapiens, UniProt Q14164).
T2 construct: purchased Invitrogen PR8031B
T2 sequence (Q14164 1-716): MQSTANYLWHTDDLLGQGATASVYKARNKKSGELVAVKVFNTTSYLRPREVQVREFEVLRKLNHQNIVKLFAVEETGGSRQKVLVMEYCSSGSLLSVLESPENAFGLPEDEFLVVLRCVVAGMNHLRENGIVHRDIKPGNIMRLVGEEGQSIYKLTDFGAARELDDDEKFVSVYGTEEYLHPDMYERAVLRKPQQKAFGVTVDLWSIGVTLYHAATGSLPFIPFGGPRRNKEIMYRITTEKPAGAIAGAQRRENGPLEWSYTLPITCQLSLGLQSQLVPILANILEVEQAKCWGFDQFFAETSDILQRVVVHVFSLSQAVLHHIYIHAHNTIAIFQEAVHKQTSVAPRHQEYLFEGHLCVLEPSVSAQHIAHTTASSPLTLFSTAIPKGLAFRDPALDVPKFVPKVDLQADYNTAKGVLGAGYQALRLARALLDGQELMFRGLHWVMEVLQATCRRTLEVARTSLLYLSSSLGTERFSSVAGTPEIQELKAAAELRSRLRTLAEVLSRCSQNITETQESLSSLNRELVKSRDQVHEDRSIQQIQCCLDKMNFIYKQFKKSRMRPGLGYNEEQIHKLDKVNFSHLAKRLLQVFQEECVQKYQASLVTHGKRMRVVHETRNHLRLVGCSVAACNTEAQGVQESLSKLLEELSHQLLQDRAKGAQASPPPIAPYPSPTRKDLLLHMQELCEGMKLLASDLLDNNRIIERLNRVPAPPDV
In words: IKKε inhibition, ADP-Glo Kinase Assay. The experiment is classed as biochemical. The note with it: luminometer. On the procedure: Inhibition activities on TNIK, IKKε and TBK1 were evaluated using the compounds of Examples 1 to 254.
The inhibition activities on TNIK, IKKε and TBK1 were measured by a luminometer, TNIK/IKKε/TBK1 Kinase Enzyme System (Promega, Ca# V4158; Invitrogen, PR8031B, Promega, Ca# V3991) and ADP-Glo Kinase Assay using ADP-Glo™ Kinase Analysis Kit (Promega, Ca# V9101) and a kinase reaction buffer [40 mM Tris(pH 7.5), 20 mM MgCl2, 0.1 mg/mL BSA] in accordance with the manufacturer's protocol.

Regarding `CC(NC(=O)c1ccc2[nH]nc(NC(=O)c3ccc(N4CCN(C)CC4)cc3)c2c1)c1ccsc1` (centres unmarked) [Example 80, 3-(4-(4-Methylpiperazin-1-yl)benzamido)-N-(1-(thiophen-3-yl)ethyl)-1H-indazole-5-carboxamide], the values for the IC50 in experiment [1] and in experiment [2] were 0.0025 µM and 0.0074 µM, respectively.
The matching figures for `O=C(NCc1cccnc1)c1ccc2[nH]nc(NC(=O)c3ccc(N4CCOCC4)cc3)c2c1` [Example 56, 3-(4-Morpholinobenzamido)-N-(pyridin-3-ylmethyl)-1H-indazole-5-carboxamide 2,2,2-trifluoroacetate]: 0.0033 µM and 0.1 µM.
As for `O=C(NCC1CC1)c1ccc2[nH]nc(NC(=O)c3ccc(F)cc3)c2c1` [Example 23, N-(Cyclopropylmethyl)-3-(4-fluorobenzamido)-1H-indazole-5-carboxamide], the half-maximal inhibitory concentration (IC50) in experiment [1] was 1.41 µM; in experiment [2] it was 5.58 µM.
Regarding `O=C(Nc1n[nH]c2ccc(C(=O)NC(c3ccccn3)C3CC3)cc12)c1ccc(N2CCOCC2)cc1` (centres unmarked) [Example 139, N-(Cyclopropyl(pyridin-2-yl)methyl)-3-(4-morpholinobenzamido)-1H-indazole-5-carboxamide], the IC50 in experiment [1] was 0.1 µM; in experiment [2] it was 0.34 µM.
As to `O=C(Nc1n[nH]c2ccc(C(=O)NC3(c4cccnc4)CC3)cc12)c1ccc(F)cc1` [Example 217, 3-(4-Fluorobenzamido)-N-(1-(pyridin-3-yl)cyclopropyl)-1H-indazole-5-carboxamide], the IC50 in experiment [1] turned out to be 0.52 µM; in experiment [2] it was 0.65 µM.
`CCC[C@H](NC(=O)c1ccc2[nH]nc(NC(=O)c3ccc(N4CCN(C)CC4)cc3)c2c1)c1ccccc1` [Example 193, (S)-3-(4-(4-Methylpiperazin-1-yl)benzamido)-N-(1-phenylbutyl)-1H-indazole-5-carboxamide]: the IC50 in experiment [1] worked out at 0.8 µM; in experiment [2], 4.47 µM.
Consider `CCC(NC(=O)c1ccc2[nH]nc(NC(=O)c3ccc(N4CCC(OC)CC4)cc3)c2c1)c1cccs1` (centres unmarked) [Example 110, 3-(4-(4-methoxypiperidin-1-yl)benzamido)-N-(1-(thiophen-2-yl)propyl)-1H-indazole-5-carboxamide], for which the IC50 in experiment [1] turned out to be 0.0072 µM; in experiment [2], 0.036 µM.
In the case of `CCC(NCc1ccc2[nH]nc(NC(=O)c3ccc(N4CCN(C)CC4)cc3)c2c1)c1cccs1` (centres unmarked) [Example 124], the IC50 in experiment [1] is 2.44 µM; in experiment [2], over 10 µM.
As for `O=C(NCc1ccc(C(F)(F)F)nc1)c1ccc2[nH]nc(NC(=O)c3ccc(N4CCOCC4)cc3)c2c1` [Example 71, 3-(4-Morpholinobenzamido)-N-((6-(trifluoromethyl)pyridin-3-yl)methyl)-1H-indazole-5-carboxamide], the IC50 in experiment [1] is 0.44 µM; in experiment [2] it was over 10 µM.
The matching figures for `CC[C@H](NC(=O)c1ccc2[nH]nc(NC(=O)c3ccc(N4CCN(C)CC4)cc3)c2c1)c1ccccc1` [Example 190, (S)-3-(4-(4-Methylpiperazin-1-yl)benzamido)-N-(1-phenylpropyl)-1H-indazole-5-carboxamide]: 0.34 µM and 1.23 µM.
The matching figures for `CC(NC(=O)c1ccc2[nH]nc(NC(=O)c3ccc(N4CCN(C)CC4)cc3)c2c1)c1ccccn1` (centres unmarked) [Example 128, 3-(4-(4-Methylpiperazin-1-yl)benzamido)-N-(1-(pyridin-2-yl)ethyl)-1H-indazole-5-carboxamide]: 0.028 µM and 0.11 µM.
The matching figures for `CN1CCN(c2ccc(C(=O)Nc3n[nH]c4ccc(C(=O)NCc5cccs5)cc34)cc2)CC1` [Example 149, 3-(4-(4-methylpiperazin-1-yl)benzamido)-N-(thiophen-2-ylmethyl)-1H-indazole-5-carboxamide]: 0.0075 µM and 0.032 µM.
Turning to `O=C(Nc1n[nH]c2ccc(C(=O)NC3(c4ccccn4)CC3)cc12)c1ccc(F)cc1` [Example 216, 3-(4-Fluorobenzamido)-N-(1-(pyridin-2-yl)cyclopropyl)-1H-indazole-5-carboxamide], the IC50 in experiment [1] amounted to 3.7 µM; in experiment [2], 5.25 µM.
